Series [1] can be described thus: PAMPA permeability pH 7.4.
The next series in a line: Solubility pH 7.4. The conditions noted are these: pH 7.4, aqueous buffer.
The target of a further series is PI3K alpha (Homo sapiens, UniProt P42336). The experiment in a line: PI3K-alpha Fluorescence Polarization Assay. It counts as biochemical.
The nature of series [2]: Microsome Stability (15 min), nude mouse. It counts as in vitro ADME. The conditions noted are these: microsomes.
Series [3] can be described thus: Microsome Stability (15 min), rat. It counts as in vitro ADME. The conditions noted are these: microsomes, Phase I (NADPH), read-out: Microsome Stability (15 min) T ½ Phase I rat.
A short description of series [4]: Microsome Stability (15 min), human. It counts as in vitro ADME. Particulars: microsomes.
A short description of series [5]: CACO2 permeability a-b/b-a. Type of series: in vitro ADME. The conditions noted are these: human, Caco-2; for Papp A→B: a − b (first value of cell), read-out: CACO2 Pe a − b; for Papp B→A: b − a (second value of cell), read-out: CACO2 Pe b − a.
For a further series, the target named is mTOR (Homo sapiens, UniProt P42345). The experiment in a line: mTOR Enzyme Assay (DELFIA, purified enzyme). It counts as biochemical. Also on record: FLAG.
The nature of series [6]: In vivo blood/plasma and tumor levels of prodrug and metabolites after 50 mg, kg po. The conditions noted are these: 50 mg.
[7] abbreviates: nude, mouse, Phase I (NADPH), read-out: Microsome Stability (15 min) T ½ Phase I nude mouse.
[8] abbreviates: Phase I (NADPH), read-out: Microsome Stability (15 min) T ½ Phase I human.
Setting [9] is: value after the slash in Table VIc, read-out: Microsome Stability (15 min) T ½ human, second value of cell.
The mark [10] stands for this setting: Phase I (NADPH), read-out: Microsome Stability (15 min) T ½ Phase I nude mouse.

The values that follow come from US20100061982A1, “3-SUBSTITUTED-1H-INDOLE, 3-SUBSTITUTED-1H-PYRROLO[2,3-B]PYRIDINE AND 3-SUBSTITUTED-1H-PYRROLO[3,2-B]PYRIDINE COMPOUNDS, THEIR USE AS MTOR KINASE AND PI3 KINASE INHIBITORS, AND THEIR SYNTHESES” (priority 2008, published 2010).

≈ marks a conversion by molar mass, not a printed value. Where two headings read alike, the source gives them in different places.

PI3K alpha, sequence (P42336 whole entry, species assumed): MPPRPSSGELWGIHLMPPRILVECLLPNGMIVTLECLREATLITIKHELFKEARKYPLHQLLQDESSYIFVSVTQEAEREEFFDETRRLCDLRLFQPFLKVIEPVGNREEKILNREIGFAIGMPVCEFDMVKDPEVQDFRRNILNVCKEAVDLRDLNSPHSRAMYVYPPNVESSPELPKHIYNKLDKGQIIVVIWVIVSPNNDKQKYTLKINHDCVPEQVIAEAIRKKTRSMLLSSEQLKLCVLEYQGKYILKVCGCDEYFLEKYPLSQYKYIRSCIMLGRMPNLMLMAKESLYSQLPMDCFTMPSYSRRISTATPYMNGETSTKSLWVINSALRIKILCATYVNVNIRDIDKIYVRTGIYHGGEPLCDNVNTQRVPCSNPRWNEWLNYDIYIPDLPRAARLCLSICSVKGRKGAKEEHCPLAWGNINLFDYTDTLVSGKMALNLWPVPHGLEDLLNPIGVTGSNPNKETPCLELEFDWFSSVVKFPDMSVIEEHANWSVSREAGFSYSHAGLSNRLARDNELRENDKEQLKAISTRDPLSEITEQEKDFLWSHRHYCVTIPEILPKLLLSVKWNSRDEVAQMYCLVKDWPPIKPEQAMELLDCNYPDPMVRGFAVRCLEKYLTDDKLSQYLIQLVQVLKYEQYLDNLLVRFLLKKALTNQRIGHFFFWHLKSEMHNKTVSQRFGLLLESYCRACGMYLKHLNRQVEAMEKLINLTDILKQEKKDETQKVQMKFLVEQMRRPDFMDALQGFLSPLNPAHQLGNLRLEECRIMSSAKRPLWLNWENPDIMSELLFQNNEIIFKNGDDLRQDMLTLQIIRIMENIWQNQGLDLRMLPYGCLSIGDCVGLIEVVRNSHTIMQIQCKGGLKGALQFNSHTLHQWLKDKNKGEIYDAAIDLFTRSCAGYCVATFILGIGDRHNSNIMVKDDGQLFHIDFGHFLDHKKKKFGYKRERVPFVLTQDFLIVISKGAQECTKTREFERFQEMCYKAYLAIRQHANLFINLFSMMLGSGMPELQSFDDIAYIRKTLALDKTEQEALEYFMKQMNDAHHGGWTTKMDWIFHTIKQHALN
PI3K alpha, sequence (P27986 whole entry partner, species assumed): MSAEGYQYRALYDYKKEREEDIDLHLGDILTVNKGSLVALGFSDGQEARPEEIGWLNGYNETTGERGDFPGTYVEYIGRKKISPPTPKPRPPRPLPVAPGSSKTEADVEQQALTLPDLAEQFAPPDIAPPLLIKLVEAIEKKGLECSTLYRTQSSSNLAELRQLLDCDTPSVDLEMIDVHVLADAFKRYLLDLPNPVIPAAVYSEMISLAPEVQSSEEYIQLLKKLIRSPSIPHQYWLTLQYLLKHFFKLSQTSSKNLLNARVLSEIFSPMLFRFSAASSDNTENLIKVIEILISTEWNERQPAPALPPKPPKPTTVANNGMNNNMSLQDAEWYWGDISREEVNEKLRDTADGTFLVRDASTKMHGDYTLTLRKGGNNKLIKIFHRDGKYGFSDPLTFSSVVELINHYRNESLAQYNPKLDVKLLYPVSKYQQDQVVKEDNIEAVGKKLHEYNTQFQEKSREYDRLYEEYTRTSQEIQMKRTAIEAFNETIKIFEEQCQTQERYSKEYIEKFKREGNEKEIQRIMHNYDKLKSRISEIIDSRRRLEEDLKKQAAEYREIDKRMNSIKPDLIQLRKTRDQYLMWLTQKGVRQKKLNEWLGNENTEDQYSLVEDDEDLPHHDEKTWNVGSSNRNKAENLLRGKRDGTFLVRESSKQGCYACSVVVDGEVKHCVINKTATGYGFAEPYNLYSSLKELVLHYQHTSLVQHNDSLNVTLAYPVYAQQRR

With `Cn1cc(/C=C2\Oc3cc(O)cc(O)c3C2=O)c2c(-c3ccccc3)ccnc21` [(2Z)-4,6-dihydroxy-2-[(1-methyl-4-phenyl-1H-pyrrolo[2,3-b]pyridin-3-yl)methylene]-1-benzofuran-3(2H)-one], the “PAMPA Pe” value in series [1] was 0.09 10e−6 cm/s. In addition, the concentration in solution in “Solubility pH 7.4” (solubility) came to 1 µg/mL (≈ 2.6 µM). In addition, the IC50 on PI3K alpha (read-out: PI3K alpha Mean IC50) is 0.0628 µM. Also, the half-life in [2] (setting [7]) is 30 min; in [2] (nude, mouse, value after the slash in Table VIc, read-out: Microsome Stability (15 min) T ½ nude mouse, second value of cell) it was 2 min; in [3] it was greater than 30 min; in series [4] (setting [8]), greater than 30 min; in series [4] (setting [9]) it was 6 min. For the same molecule, the Papp A→B in [5] is 66.3 ×10⁻⁶ cm/s. Moreover, the Papp B→A in [5] amounted to 58.1 ×10⁻⁶ cm/s.

Turning to `COc1ccc2c(c1)c(/C=C1\Oc3cc(OC(=O)N(C)C)cc(O)c3C1=O)cn2CCCN(C)C` [Example 42, (2Z)-2-({1-[3-(dimethylamino)propyl]-5-methoxy-1H-indol-3-yl}methylene)-4-hydroxy-3-oxo-2,3-dihydro-1-benzofuran-6-yl dimethylcarbamate], the IC50 against PI3K alpha is 2.8 µM; on mTOR (read-out: mTOR Mean IC50), greater than 20 µM.

As to `CNC(=O)Oc1ccc2c(c1)C(=O)/C(=C/c1cn(CCN3CCN(C)CC3)c3ccc(OC)cc13)O2` [Example 45, (2Z)-2-({5-methoxy-1-[2-(4-methylpiperazin-1-yl)ethyl]-1H-indol-3-yl}methylene)-3-oxo-2,3-dihydro-1-benzofuran-5-yl methylcarbamate], the “PAMPA Pe” value in series [1] is 0.43 10e−6 cm/s. This molecule showed a solubility in “Solubility pH 7.4” of 63 µg/mL (≈ 128 µM). At mTOR (read-out: mTOR Mean IC50), the 50% inhibitory concentration (IC50) is greater than 4 µM. Besides, in series [3], the half-life came out at 9 min.

As for `COc1ccc2c(c1)c(/C=C1\Oc3cc(OC(=O)N(C)C)cc(O)c3C1=O)c(C)n2CCN1CCN(C)CC1` [Example 41, (2Z)-4-hydroxy-2-({5-methoxy-2-methyl-1-[2-(4-methylpiperazin-1-yl)ethyl]-1H-indol-3-yl}methylene)-3-oxo-2,3-dihydro-1-benzofuran-6-yldimethylcarbamate], the results for the IC50 at PI3K alpha and at mTOR were 1.13 µM and 13 µM, respectively.

`COc1ccc2c(c1)c(/C=C1\Oc3cc(OC(=O)N4CCOCC4)cc(OC(=O)N4CCOCC4)c3C1=O)cn2CCCN(C)C` [Example 1, (2Z)-2-({1-[3-(dimethylamino)propyl]-5-methoxy-1H-indol-3-yl}methylene)-3-oxo-2,3-dihydro-1-benzofuran-4,6-diyl dimorpholine-4-carboxylate]: the “PAMPA Pe” value in series [1] is on record as 1.4 10e−6 cm/s. In addition, the solubility in the series “Solubility pH 7.4” was greater than 100 µg/mL. The IC50 was greater than 10 µM against PI3K alpha and greater than 4 µM at mTOR (read-out: mTOR Mean IC50). For the same molecule, in series [3], the half-life was greater than 30 min.

For the molecule `COc1ccc2[nH]c(-c3ccccc3)c(/C=C3\Oc4cc(OC(=O)N(C(C)C)C(C)C)cc(OC(=O)N(C(C)C)C(C)C)c4C3=O)c2c1` [Example 31, (2Z)-2-[(5-methoxy-2-phenyl-1H-indol-3-yl)methylene]-3-oxo-2,3-dihydro-1-benzofuran-4,6-diyl bis(diisopropylcarbamate)], in [1], the “PAMPA Pe” value is listed as 0 10e−6 cm/s. The values for the IC50 at PI3K alpha (read-out: PI3K alpha Mean IC50) and on mTOR (read-out: mTOR Mean IC50) were 0.27 µM and 0.51 µM, respectively. For the same molecule, the half-life in series [2] (setting [10]) is greater than 30 min; in [3], 9 min; in series [4] (setting [8]), 7 min.

For `CCOC(=O)CNC(=O)Oc1ccc2c(c1)O/C(=C\c1cn(CCCN(C)C)c3ccc(OC)cc13)C2=O` [Example 25, ethyl N-({[(2Z)-2-({1-[3-(dimethylamino)propyl]-5-methoxy-1H-indol-3-yl}methylene)-3-oxo-2,3-dihydro-1-benzofuran-6-yl]oxy}carbonyl)glycinate], the “PAMPA Pe” value in series [1] was 0 10e−6 cm/s. Moreover, in “Solubility pH 7.4”, the solubility is greater than 100 µg/mL. The figures for the IC50 against PI3K alpha and at mTOR (read-out: mTOR Mean IC50) were 0.086 µM and 0.61 µM, respectively.

Consider `COc1ccc2[nH]c(-c3ccccc3)c(/C=C3\Oc4cc(OP(=O)(O)c5ccccc5)ccc4C3=O)c2c1` [Example 26, (2Z)-2-[(5-methoxy-2-phenyl-1H-indol-3-yl)methylene]-3-oxo-2,3-dihydro-1-benzofuran-6-yl hydrogen phenylphosphonate], for which, in series [1], the “PAMPA Pe” value is 0 10e−6 cm/s. This molecule had a solubility in “Solubility pH 7.4” of 11 µg/mL (≈ 21 µM). Moreover, the figures for the IC50 against PI3K alpha and on mTOR (read-out: mTOR Mean IC50) were 0.108 µM and 2.2 µM, respectively. For the same molecule, the half-life in [3] is greater than 30 min.

For `COc1ccc2c(c1)c(/C=C1\Oc3cc(OC(=O)N4CCN(C)CC4)cc(OC(=O)N4CCN(C)CC4)c3C1=O)cn2CCCN(C)C` [Example 36, (2Z)-2-({1-[3-(dimethylamino)propyl]-5-methoxy-1H-indol-3-yl}methylene)-3-oxo-2,3-dihydro-1-benzofuran-4,6-diyl bis(4-methylpiperazine-1-carboxylate)], in series [1], the “PAMPA Pe” value is listed as 0.23 10e−6 cm/s. This molecule also came in with a solubility in “Solubility pH 7.4” of 36 µg/mL (≈ 54.5 µM). For the same molecule, the figures for the IC50 on PI3K alpha and at mTOR (read-out: mTOR Mean IC50) were greater than 10 µM and 1.07 µM, respectively.

Take `COc1ccc2c(c1)c(/C=C1\Oc3ccc(O)cc3C1=O)c(C)n2CCN1CCN(C)CC1` [(2Z)-5-hydroxy-2-({5-methoxy-2-methyl-1-[2-(4-methylpiperazin-1-yl)ethyl]-1H-indol-3-yl}methylene)-1-benzofuran-3(2H)-one]: the IC50 at mTOR (read-out: mTOR Mean IC50) amounted to 1.05 µM.

On to `COc1ccc2[nH]c(-c3ccccc3)c(/C=C3\Oc4cc(OC(=O)N(C)C)cc(OC(=O)N(C)C)c4C3=O)c2c1` [Example 30, (2Z)-2-[(5-methoxy-2-phenyl-1H-indol-3-yl)methylene]-3-oxo-2,3-dihydro-1-benzofuran-4,6-diyl bis(dimethylcarbamate)], for which the plasma prodrug concentration is 29 ng, ml in series [6] (0.5 h); 65 ng, ml in series [6] (2 h); 20 ng, ml in series [6] (6 h (third value)). The “PAMPA Pe” value in series [1] is recorded as 0 10e−6 cm/s. Moreover, half-maximal inhibition at PI3K alpha (IC50) required 2.22 µM. The half-life in series [2] (setting [10]) was greater than 30 min; in [3], 19 min; in series [4] (setting [8]), less than 1 min. In addition, in [5], the Papp A→B is 0.19 ×10⁻⁶ cm/s. Moreover, the Papp B→A in series [5] was 0.04 ×10⁻⁶ cm/s.

In the case of `COc1ccc2c(c1)c(/C=C1\Oc3cc(OC(=O)N4CCN(Cc5ccccc5)CC4)cc(OC(=O)N4CCN(Cc5ccccc5)CC4)c3C1=O)cn2CCCN(C)C` [Example 37, (2Z)-2-({1-[3-(dimethylamino)propyl]-5-methoxy-1H-indol-3-yl}methylene)-3-oxo-2,3-dihydro-1-benzofuran-4,6-diyl bis(4-benzylpiperazine-1-carboxylate)], the “PAMPA Pe” value in series [1] is listed as 0 10e−6 cm/s. For the same molecule, the IC50 at PI3K alpha is greater than 10 µM; on mTOR (read-out: mTOR Mean IC50), 1.65 µM.

For the molecule `Cn1cc(/C=C2\Oc3cccc(O)c3C2=O)c2c(N3CC4CCC(C3)O4)ccnc21` [(2Z)-4-hydroxy-2-{[1-methyl-4-(8-oxa-3-azabicyclo[3.2.1]oct-3-yl)-1H-pyrrolo[2,3-b]pyridin-3-yl]methylene}-1-benzofuran-3(2H)-one], the “PAMPA Pe” value in series [1] is reported as 0.79 10e−6 cm/s. The half-life in [2] (setting [7]) was 13 min; in series [3], 2 min; in [4] (setting [8]), 28 min; in [4] (setting [9]) it was 3 min. Moreover, the Papp A→B in series [5] stood at 5.5 ×10⁻⁶ cm/s. Besides, in [5], the Papp B→A turned out to be 8.1 ×10⁻⁶ cm/s.

Regarding `COc1ccc2c(c1)c(/C=C1\Oc3cc(O)cc(OC(=O)N(C)C)c3C1=O)cn2CCCN(C)C` [Example 40, (2Z)-2-({1-[3-(dimethylamino)propyl]-5-methoxy-1H-indol-3-yl}methylene)-6-hydroxy-3-oxo-2,3-dihydro-1-benzofuran-4-yl dimethylcarbamate], the IC50 against PI3K alpha was 5.88 µM; at mTOR (read-out: mTOR Mean IC50), greater than 20 µM.

For `COc1ccc2c(c1)c(/C=C1\Oc3cc(O)cc(OC(=O)N(C)C)c3C1=O)c(C)n2CCN1CCN(C)CC1` [Example 39, (2Z)-6-hydroxy-2-({5-methoxy-2-methyl-1-[2-(4-methylpiperazin-1-yl)ethyl]-1H-indol-3-yl}methylene)-3-oxo-2,3-dihydro-1-benzofuran-4-yldimethylcarbamate], the “PAMPA Pe” value in series [1] was 0 10e−6 cm/s. For the same molecule, in the series “Solubility pH 7.4”, the solubility was greater than 100 µg/mL. Also, the IC50 against PI3K alpha is 0.842 µM; against mTOR it was greater than 4 µM. The half-life in series [3] was 27 min.
